This passage reports DC50 and Dmax results from patent publication US12599672B2, “KRAS proteolysis targeting chimeras” (PAQ Therapeutics Inc., priority 2023, dated 2026).

Molecules are shown by their SMILES. Where only a bound is given, the exact number is not on record here.

Holding throughout (type): cell-based
In one experiment the target is T1, KRAS G12D (Homo sapiens, UniProt P01116, G12D).
T1 construct: AsPc-1-KRAS (G12D)-HiBit-KI cell (Pharmaron); host or cells: AsPc-1-KRAS (G12D)-HiBit-KI cells (HiBiT knock-in at the endogenous KRAS locus)
T1 sequence (P01116 1-188 isoform P01116-2 G12D): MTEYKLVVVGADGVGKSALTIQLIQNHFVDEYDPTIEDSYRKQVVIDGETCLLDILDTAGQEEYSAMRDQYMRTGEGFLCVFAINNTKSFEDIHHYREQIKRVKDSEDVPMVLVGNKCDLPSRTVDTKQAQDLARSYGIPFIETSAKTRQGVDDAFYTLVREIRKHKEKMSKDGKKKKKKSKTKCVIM
Kind of experiment: KRAS G12D HiBit assay. As to conditions: AsPc-1-KRAS (G12D)-HiBit-KI cell, compound treatment for 24 hours; for DC50: absolute DC50. Put shortly: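 Cells were treated for 24 h with compounds in a 3-fold, 10-point dilution series from a 0.3 mM DMSO stock, then equilibrated 15 min at room temperature. KRAS G12D HiBiT levels were read by luminescence after lytic Nano-Glo HiBiT reagent with LgBiT; inhibition calculated relative to 0.1% DMSO high control.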
(In general: The HiBiT peptide binds its large partner to form an active luciferase.)

The target in the next experiment is T2, KRAS (Homo sapiens, UniProt P01116).
T2 construct: endogenous in cells; host or cells: KE39 (KRAS amplified) cells
T2 sequence (P01116 1-188 isoform P01116-2): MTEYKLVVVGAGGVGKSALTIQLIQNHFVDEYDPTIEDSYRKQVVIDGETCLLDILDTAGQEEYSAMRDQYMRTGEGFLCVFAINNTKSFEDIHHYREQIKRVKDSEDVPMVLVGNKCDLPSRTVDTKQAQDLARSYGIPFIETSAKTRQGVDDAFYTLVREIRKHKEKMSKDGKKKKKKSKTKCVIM
Kind of experiment: KRASamp MSD assay. The note with it: KE39 (KRAS amplified) cells, treated with test compounds for 24 hr, MSD readout of KRAS degradation. On the procedure: KE39 (KRAS amplified) cells were cultured in RPMI 1640 medium (Gibco, 11875093), seeded into 96 well plate and treated with test compounds for 24 hr. The cells were washed with PBS and lysed in plate for 1 hr at 4° C. with agitation in RIPA buffer (Cat No. BP-115D) supplemented with protease and phosphatase inhibitor cocktail. The lysates were loaded into MSD plate coated with KRAS capture antibody (LSBio, C175665, 1:1000) for 1 h at RT with agitation. The plate was then washed three times with TBST and incubated with KRAS detection antibody (Abcam, Ab275876. 1:2000) for 1 h at RT. After washing three times with TBST, the plate was incubated with secondary detection antibody GAR (1:500) for 1 hr at RT followed with 3×TBST washing. 2×MSD reading buffer was added into individual wells and the plate was finally read by MSD reader (MSD, SQ 120 MM). The recombinant WT KRAS protein was used for standard curve generation and protein quantification. The degradation activity was calculated using the following formula: […]
DC50 was calculated by fitting the curve using GraphPad Prism v8.0.2 (analysis 263): […]

Another experiment addresses T3, KRAS G12V (Homo sapiens, UniProt P01116, G12V).
T3 construct: SW620-KRAS (G12V)-HiBit-KI cell (Pharmaron); host or cells: SW620-KRAS (G12V)-HiBit-KI cells (HiBiT knock-in at the endogenous KRAS locus)
The experiment can be described thus: KRAS G12V HiBit assay. The note with it: SW620-KRAS (G12V)-HiBit-KI cells, compound treatment for 24 hours. Put shortly: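 HiBiT-tagged KRAS G12V cells treated 24 h with compound in a 3-fold, 10-point series (0.3 mM DMSO stock); lytic HiBiT reagent with LgBiT added after 15 min room-temperature equilibration. Degradation calculated against 0.1% DMSO high control.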

[1] abbreviates: numeric bounds given in place of class symbols.

T3 sequence (P01116 1-188 isoform P01116-2 G12V): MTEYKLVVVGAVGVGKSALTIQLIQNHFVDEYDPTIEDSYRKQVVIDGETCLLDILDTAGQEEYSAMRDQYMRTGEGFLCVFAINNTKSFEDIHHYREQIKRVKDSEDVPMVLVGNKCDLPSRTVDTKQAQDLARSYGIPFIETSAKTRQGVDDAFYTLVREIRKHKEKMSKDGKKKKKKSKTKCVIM

`CCc1c(F)ccc2cc(O)cc(-c3ncc4c(N5CCC[C@@](C)(O)C5)nc(OC[C@@]56CCCN5C(CN5CCC(Cc7ccc8c(c7)n(C)c(=O)n8C7CCC(=O)NC7=O)CC5)CC6)nc4c3F)c12` (stereo partly drawn) [Compound 383, 3-(5-((1-(((7aS)-7a-(((7-(8-ethyl-7-fluoro-3-hydroxynaphthalen-1-yl)-8-fluoro-4-((R)-3-hydroxy-3-methylpiperidin-1-yl)pyrido[4,3-d]pyrimidin-2-yl)oxy)methyl)hexahydro-1H-pyrrolizin-3-yl)methyl)piperidin-4-yl)methyl)-3-methyl-2-oxo-2,3-dihydro-1H-benzo[d]imidazol-1-yl)piperidine-2,6-dione]: the DC50 on KRAS G12D (class symbols) was less than 100 nM; on KRAS, no less than 10 nM; on KRAS G12V (numeric bounds), greater than 91.5 nM.
For the compound `CCc1c(F)ccc2cc(O)cc(-c3ncc4c(N5CCC[C@@](C)(O)C5)nc(OC[C@@]56CCCN5[C@H](CNC(=O)c5ccc(CN7CCC(c8ccc9c(c8)n(C)c(=O)n9C8CCC(=O)NC8=O)CC7)cc5)CC6)nc4c3F)c12` (stereo partly drawn) [Compound 484, 4-((4-(1-(2,6-dioxopiperidin-3-yl)-3-methyl-2-oxo-2,3-dihydro-1H-benzo[d]imidazol-5-yl)piperidin-1-yl)methyl)-N-(((3S,7aS)-7a-(((7-(8-ethyl-7-fluoro-3-hydroxynaphthalen-1-yl)-8-fluoro-4-((R)-3-hydroxy-3-methylpiperidin-1-yl)pyrido[4,3-d]pyrimidin-2-yl)oxy)methyl)hexahydro-1H-pyrrolizin-3-yl)methyl)benzamide], the DC50 was less than 100 nM at KRAS G12D (class symbols), no less than 10 nM at KRAS and 10 to 100 nM on KRAS G12V (class symbols).
In the case of `CCc1c(F)ccc2cc(O)cc(-c3ncc4c(N5CCC[C@@](C)(O)C5)nc(OC[C@]56CCCN5[C@@H](COC(=O)N5CCC(CN7CCC(c8cc9c(cc8F)n(C8CCC(=O)NC8=O)c(=O)n9C)CC7)CC5)CC6)nc4c3F)c12` (stereo partly drawn) [Compound 425, ((3R,7aR)-7a-(((7-(8-ethyl-7-fluoro-3-hydroxynaphthalen-1-yl)-8-fluoro-4-((R)-3-hydroxy-3-methylpiperidin-1-yl)pyrido[4,3-d]pyrimidin-2-yl)oxy)methyl)hexahydro-1H-pyrrolizin-3-yl)methyl 4-((4-(1-(2,6-dioxopiperidin-3-yl)-6-fluoro-3-methyl-2-oxo-2,3-dihydro-1H-benzo[d]imidazol-5-yl)piperidin-1-yl)methyl)piperidine-1-carboxylate], the DC50 at KRAS G12D (class symbols) is less than 100 nM; at KRAS, less than 1 nM; on KRAS G12V (class symbols), less than 10 nM.
In the case of `C#Cc1c(F)ccc2cc(O)cc(-c3ncc4c(N5CCC[C@@](C)(O)C5)nc(OC[C@@]56CCCN5[C@H](COC(=O)N5CCC(C7CCN(c8ccc9c(c8)n(C)c(=O)n9C8CCC(=O)NC8=O)CC7)CC5)CC6)nc4c3F)c12` (stereo partly drawn) [Compound 32], the DC50 at KRAS G12D (setting [1]) is greater than 100 nM; on KRAS, 1 to 10 nM.
Consider `CCc1c(F)ccc2cccc(-c3ncc4c(N5CCC[C@@](C)(O)C5)nc(OC[C@@]56CCCN5[C@H](COC(=O)NCCOCCOCCOCCOc5ccc7c(c5)n(C)c(=O)n7C5CCC(=O)NC5=O)CC6)nc4c3F)c12` (stereo partly drawn) [Compound 105, ((3S,7aS)-7a-(((7-(8-ethyl-7-fluoronaphthalen-1-yl)-8-fluoro-4-((R)-3-hydroxy-3-methylpiperidin-1-yl)pyrido[4,3-d]pyrimidin-2-yl)oxy)methyl)hexahydro-1H-pyrrolizin-3-yl)methyl (2-(2-(2-(2-((1-(2,6-dioxopiperidin-3-yl)-3-methyl-2-oxo-2,3-dihydro-1H-benzo[d]imidazol-5-yl)oxy)ethoxy)ethoxy)ethoxy)ethyl) carbamate], for which, on KRAS G12D (class symbols), the DC50 is greater than 300 nM and the Dmax lay within 15 to 50%. This compound also yielded a DC50 at KRAS G12V (class symbols) greater than 100 nM.
Take `C#Cc1c(F)ccc2cc(O)cc(-c3ncc4c(N5CCC[C@@](C)(O)C5)nc(OCC5(CN6CCN(CCN7CCN(c8ccc9c(c8)n(C)c(=O)n9C8CCC(=O)NC8=O)CC7)CC6)CC5)nc4c3F)c12` (stereo partly drawn) [Compound 28]: the DC50 was less than 100 nM on KRAS G12D (class symbols) and greater than 100 nM on KRAS G12V (class symbols).
At KRAS G12D (class symbols), `C#Cc1c(F)ccc2cccc(-c3ncc4c(N5CCC[C@@](C)(O)C5)nc(OC[C@@]56CCCN5[C@H](COC(=O)N5CCC(CN7CCC(c8ccc9c(c8)n(C)c(=O)n9C8CCC(=O)NC8=O)CC7)CC5)CC6)nc4c3F)c12` (stereo partly drawn) [Compound 3, [(3S,8S)-8-[[7-(8-Ethynyl-7-fluoro-1-naphthyl)-8-fluoro-4-[(3R)-3-hydroxy-3-methyl-1-piperidyl]pyrido[4,3-d]pyrimidin-2-yl]oxymethyl]-1,2,3,5,6,7-hexahydropyrrolizin-3-yl]methyl 4-[[4-[1-(2,6-dioxo-3-piperidyl)-3-methyl-2-oxo-benzimidazol-5-yl]-1-piperidyl]methyl]piperidine-1-carboxylate] came in with a DC50 of less than 100 nM and a Dmax greater than 50%. On KRAS G12V (class symbols), this compound had a DC50 greater than 100 nM.
Take `CCc1c(F)ccc2cc(O)cc(-c3ncc4c(N5CCC[C@@](C)(O)C5)nc(OC[C@@]56CCCN5[C@H](COC(=O)N5CCC(CN7CC8(CC(c9ccc%10c(c9)n(C)c(=O)n%10C9CCC(=O)NC9=O)C8)C7)CC5)CC6)nc4c3F)c12` (stereo partly drawn) [Compound 366, ((3S,7aS)-7a-(((7-(8-ethyl-7-fluoro-3-hydroxynaphthalen-1-yl)-8-fluoro-4-((R)-3-hydroxy-3-methylpiperidin-1-yl)pyrido[4,3-d]pyrimidin-2-yl)oxy)methyl)hexahydro-1H-pyrrolizin-3-yl)methyl 4-((6-(1-(2,6-dioxopiperidin-3-yl)-3-methyl-2-oxo-2,3-dihydro-1H-benzo[d]imidazol-5-yl)-2-azaspiro[3.3]heptan-2-yl)methyl)piperidine-1-carboxylate]: the results for the DC50 on KRAS G12D (class symbols) and at KRAS G12V (class symbols) were less than 100 nM and 10 to 100 nM, respectively.
For `CCc1c(F)ccc2cc(O)cc(-c3ncc4c(N5CCC[C@@](C)(O)C5)nc(OC[C@@]56CCCN5[C@H](COc5ccc(CCN7CCC(c8ccc9c(c8)n(C)c(=O)n9C8CCC(=O)NC8=O)CC7)cc5)CC6)nc4c3F)c12` (stereo partly drawn) [Compound 499, 3-(5-(1-(4-(((3S,7aS)-7a-(((7-(8-Ethyl-7-fluoro-3-hydroxynaphthalen-1-yl)-8-fluoro-4-((R)-3-hydroxy-3-methylpiperidin-1-yl)pyrido[4,3-d]pyrimidin-2-yl)oxy)methyl)hexahydro-1H-pyrrolizin-3-yl)methoxy)phenethyl)piperidin-4-yl)-3-methyl-2-oxo-2,3-dihydro-1H-benzo[d]imidazol-1-yl) piperidine-2,6-dione] the same measures were less than 100 nM and 10 to 100 nM.
In the same order, the values of `C#Cc1c(F)ccc2cc(O)cc(-c3ncc4c(N5CCC[C@@](C)(O)C5)nc(OC[C@@]56CCCN5[C@H](COC(=O)N5CCC(N7CCC(c8ccc9c(c8)n(C)c(=O)n9C8CCC(=O)NC8=O)CC7)CC5)CC6)nc4c3F)c12` (stereo partly drawn) [Compound 129] are greater than 300 nM and greater than 100 nM.
Consider `CCc1c(F)ccc2cc(O)cc(-c3ccc4c(N5CCC[C@@](C)(O)C5)nc(OC[C@@]56CCCN5[C@@H](COC(=O)N5CCC(CN7CCC(c8ccc9c(c8)n(C)c(=O)n9C8CCC(=O)NC8=O)CC7)CC5)CC6)nc4c3F)c12` (stereo partly drawn) [Compound 319, ((3R,7aS)-7a-(((7-(8-ethyl-7-fluoro-3-hydroxynaphthalen-1-yl)-8-fluoro-4-((R)-3-hydroxy-3-methylpiperidin-1-yl)quinazolin-2-yl)oxy)methyl)hexahydro-1H-pyrrolizin-3-yl)methyl 4-((4-(1-(2,6-dioxopiperidin-3-yl)-3-methyl-2-oxo-2,3-dihydro-1H-benzo[d]imidazol-5-yl)piperidin-1-yl)methyl)piperidine-1-carboxylate], for which the DC50 on KRAS G12D (setting [1]) and on KRAS G12V (class symbols) was greater than 100 nM in each case.
